Laboratory results: ChEMBL document CHEMBL1156895 (Bioorg Med Chem Lett, 2010)
Calls of active or inactive are those of the source. No cut-off for these calls is given here.

Experiments:
[1] = Induction of NO release in phosphate buffer at pH 7.4; type: physicochemical
[2] = Induction of NO release in presence of 5 mM L-cysteine; type: physicochemical
Rattus norvegicus [3] = assay: Antiinflammatory activity in po dosed rat assessed as inhibition of carrageenan-induced paw edema; type: functional
[4] = Selectivity ratio of IC50 for ovine COX1 to IC50 for human recombinant COX2
[5] = molecular target: T1, Prostaglandin G/H synthase 1 (Ovis aries) (UniProt P05979); assay: Inhibition of ovine COX1 at 100 uM by enzyme immunoassay
T1 sequence (whole entry): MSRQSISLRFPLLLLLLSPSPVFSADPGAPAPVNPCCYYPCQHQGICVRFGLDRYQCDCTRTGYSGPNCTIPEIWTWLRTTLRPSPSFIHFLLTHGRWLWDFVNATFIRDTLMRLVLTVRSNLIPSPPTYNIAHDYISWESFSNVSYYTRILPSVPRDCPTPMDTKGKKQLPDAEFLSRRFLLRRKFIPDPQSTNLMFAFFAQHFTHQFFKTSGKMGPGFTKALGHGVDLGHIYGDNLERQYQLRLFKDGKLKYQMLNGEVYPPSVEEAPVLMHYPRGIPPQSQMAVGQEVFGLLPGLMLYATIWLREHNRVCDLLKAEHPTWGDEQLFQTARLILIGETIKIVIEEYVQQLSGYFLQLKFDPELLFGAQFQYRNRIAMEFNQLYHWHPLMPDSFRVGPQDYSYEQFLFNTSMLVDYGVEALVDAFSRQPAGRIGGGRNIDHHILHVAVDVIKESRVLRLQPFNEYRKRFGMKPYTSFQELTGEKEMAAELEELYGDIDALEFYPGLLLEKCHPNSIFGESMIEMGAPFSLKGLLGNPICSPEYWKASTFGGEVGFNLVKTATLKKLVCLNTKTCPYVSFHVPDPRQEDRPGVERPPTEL

[6] = molecular target: T2, Prostaglandin G/H synthase 1 (Ovis aries, UniProt P05979)
T2 sequence (P05979 whole entry): T1 sequence (whole entry)
Description: Inhibition of ovine COX1 by enzyme immunoassay

Rattus norvegicus [7] = organism: Rattus norvegicus; assay: animal or person; details: po, read-out: INH
Rattus norvegicus [8] = organism: Rattus norvegicus; details: 100 mg/kg

Row | Ratio IC50 [4] | inhibition [5] | Compound | Activity [1] [%] | Activity [2] [%] | ED50 (Rattus norvegicus [3]) [mg/kg] | IC50 [6] [µM] | inhibition in vivo at 100 mg/kg (Rattus norvegicus [7]) [%] | inhibition (Rattus norvegicus [8])
1 |  |  | O=[N+]([O-])OCC(CO[N+](=O)[O-])O[N+](=O)[O-] [NITROGLYCERIN] | 2.8 | 10.1 |  |  |  | 
2 | > 6 | inactive | CS(=O)(=O)c1ccc(-n2nc(C(F)(F)F)cc2C2CCN(CCCCO[N+](=O)[O-])CC2)cc1 | 3.8 | 8.4 | 132 | > 100 |  | 
3 |  |  | CS(=O)(=O)c1ccc(-n2nc(C(F)(F)F)cc2C2=CCN(CCCCO[N+](=O)[O-])CC2)cc1 | 3.1 | 3.8 | 118 | 34.7 |  | 
4 |  |  | NS(=O)(=O)c1ccc(-n2nc(C(F)(F)F)cc2C2CCN(CCCCO[N+](=O)[O-])CC2)cc1 | 2.4 | 3.1 |  | 19.8 | 9 | 
5 |  |  | NS(=O)(=O)c1ccc(-n2nc(C(F)(F)F)cc2C2=CCN(CCCCO[N+](=O)[O-])CC2)cc1 | 5.8 | 7.1 |  | 16.2 |  | inactive
6 |  |  | CC(C)Cc1ccc(C(C)C(=O)O)cc1 (stereo unspecified) [IBUPROFEN] |  |  | 67.4 |  |  | 
